Species on record: Rattus norvegicus
Assay: DrugMatrix - Regimen: Daily Repeat
Assay type: toxicity, organism-based, Sprague-Dawley
Set-up: regimen Daily Repeat, gender Male, age 6-8 weeks
Details: in vivo, po, route oral GAVAGE, vehicle 100 % WATER; for ABSOLUTE BASOPHIL / ABSOLUTE EOSINOPHIL / ABSOLUTE LYMPHOCYTE / ABSOLUTE MONOCYTE / ABSOLUTE SEGMENTED NEUTROPHIL / BASOPHIL / EOSINOPHIL / ERYTHROCYTE COUNT / HEMATOCRIT / HEMOGLOBIN / LEUKOCYTE COUNT / LYMPHOCYTE / MEAN CORPUSCULAR HEMOGLOBIN / MEAN CORPUSCULAR HEMOGLOBIN CONCENTRATION / MEAN CORPUSCULAR VOLUME / MONOCYTE / NEUTROPHIL / NUCLEATED RED BLOOD CELLS / PLATELET COUNT: tissue Blood; for ALANINE AMINOTRANSFERASE / ALBUMIN / ALKALINE PHOSPHATASE / ASPARTATE AMINOTRANSFERASE / BLOOD UREA NITROGEN / CARBON DIOXIDE / CHLORIDE / CHOLESTEROL / CREATINE PHOSPHOKINASE / CREATININE / GLUCOSE / LACTATE DEHYDROGENASE / LIPASE / PHOSPHORUS / POTASSIUM / SODIUM / TOTAL BILIRUBIN / TOTAL PROTEIN / URIC ACID: tissue Plasma
[1] = 11 mg/kg, 120 h, dose level Low, time 5 day
[2] = 1100 mg/kg, 72 h, dose level High, time 3 day
[3] = 1100 mg/kg, 120 h, dose level High, time 5 day

CNS(=O)(=O)Cc1ccc2[nH]cc(CCN(C)C)c2c1
ABSOLUTE BASOPHIL [1]: 0 CELLS/uL
ABSOLUTE EOSINOPHIL [1]: 33.33 CELLS/uL
ABSOLUTE LYMPHOCYTE [1]: 13548.33 CELLS/uL
ABSOLUTE MONOCYTE [1]: 177 CELLS/uL
ABSOLUTE SEGMENTED NEUTROPHIL [1]: 608 CELLS/uL
BASOPHIL [1]: 0%
EOSINOPHIL [1]: 0.33%
ERYTHROCYTE COUNT [1]: 5.94 x10E6/uL
HEMATOCRIT [1]: 38.1%
HEMOGLOBIN [1]: 14.67 G/DL
LEUKOCYTE COUNT [1]: 14.37 x10E3/uL
LYMPHOCYTE [1]: 94%
MEAN CORPUSCULAR HEMOGLOBIN [1]: 24.67 pg
MEAN CORPUSCULAR HEMOGLOBIN CONCENTRATION [1]: 38.53 G/DL
MEAN CORPUSCULAR VOLUME [1]: 64.03 fL
MONOCYTE [1]: 1.33%
NEUTROPHIL [1]: 4.33%
NUCLEATED RED BLOOD CELLS [1]: 0 /100WBC
PLATELET COUNT [1]: 1140 x10E3/uL
ALANINE AMINOTRANSFERASE [1]: 51 u/L
ALBUMIN [1]: 4.23 G/DL
ALKALINE PHOSPHATASE [1]: 398.33 u/L
ASPARTATE AMINOTRANSFERASE [1]: 85.33 u/L
BLOOD UREA NITROGEN [1]: 15.67 mg/dL
CARBON DIOXIDE [1]: 31.67 mmol/L
CHLORIDE [1]: 101.67 MEQ/L
CHOLESTEROL [1]: 66 mg/dL
CREATINE PHOSPHOKINASE [1]: 235 u/L
CREATININE [1]: 0.17 mg/dL
GLUCOSE [1]: 139.67 mg/dL
LACTATE DEHYDROGENASE [1]: 145 u/L
LIPASE [1]: 10.33 u/L
PHOSPHORUS [1]: 11.03 mg/dL
POTASSIUM [1]: 6.19 MEQ/L
SODIUM [1]: 146.47 MEQ/L
TOTAL BILIRUBIN [1]: 0.17 mg/dL
TOTAL PROTEIN [1]: 6.37 G/DL
URIC ACID [1]: 0.83 mg/dL
ABSOLUTE BASOPHIL [2]: 0 CELLS/uL
ABSOLUTE EOSINOPHIL [2]: 0 CELLS/uL
ABSOLUTE LYMPHOCYTE [2]: 8603 CELLS/uL
ABSOLUTE MONOCYTE [2]: 74.33 CELLS/uL
ABSOLUTE SEGMENTED NEUTROPHIL [2]: 922.67 CELLS/uL
BASOPHIL [2]: 0%
EOSINOPHIL [2]: 0%
ERYTHROCYTE COUNT [2]: 5.83 x10E6/uL
HEMATOCRIT [2]: 35.8%
HEMOGLOBIN [2]: 13.87 G/DL
LEUKOCYTE COUNT [2]: 9.6 x10E3/uL
LYMPHOCYTE [2]: 89.67%
MEAN CORPUSCULAR HEMOGLOBIN [2]: 23.8 pg
MEAN CORPUSCULAR HEMOGLOBIN CONCENTRATION [2]: 38.73 G/DL
MEAN CORPUSCULAR VOLUME [2]: 61.43 fL
MONOCYTE [2]: 0.67%
NEUTROPHIL [2]: 9.67%
NUCLEATED RED BLOOD CELLS [2]: 0 /100WBC
PLATELET COUNT [2]: 1087.33 x10E3/uL
ALANINE AMINOTRANSFERASE [2]: 50.33 u/L
ALBUMIN [2]: 4.07 G/DL
ALKALINE PHOSPHATASE [2]: 367.67 u/L
ASPARTATE AMINOTRANSFERASE [2]: 86 u/L
BLOOD UREA NITROGEN [2]: 12.67 mg/dL
CARBON DIOXIDE [2]: 30 mmol/L
CHLORIDE [2]: 101.67 MEQ/L
CHOLESTEROL [2]: 70.33 mg/dL
CREATINE PHOSPHOKINASE [2]: 362.67 u/L
CREATININE [2]: 0.2 mg/dL
GLUCOSE [2]: 136.67 mg/dL
LACTATE DEHYDROGENASE [2]: 189.67 u/L
LIPASE [2]: 10.33 u/L
PHOSPHORUS [2]: 10.73 mg/dL
POTASSIUM [2]: 5.86 MEQ/L
SODIUM [2]: 145.13 MEQ/L
TOTAL BILIRUBIN [2]: 0.13 mg/dL
TOTAL PROTEIN [2]: 6.13 G/DL
URIC ACID [2]: 0.7 mg/dL
ABSOLUTE BASOPHIL [3]: 0 CELLS/uL
ABSOLUTE EOSINOPHIL [3]: 40.67 CELLS/uL
ABSOLUTE LYMPHOCYTE [3]: 8480 CELLS/uL
ABSOLUTE MONOCYTE [3]: 117.33 CELLS/uL
ABSOLUTE SEGMENTED NEUTROPHIL [3]: 862 CELLS/uL
BASOPHIL [3]: 0%
EOSINOPHIL [3]: 0.33%
ERYTHROCYTE COUNT [3]: 5.92 x10E6/uL
HEMATOCRIT [3]: 37.33%
HEMOGLOBIN [3]: 14.3 G/DL
LEUKOCYTE COUNT [3]: 9.5 x10E3/uL
LYMPHOCYTE [3]: 89.67%
MEAN CORPUSCULAR HEMOGLOBIN [3]: 24.2 pg
MEAN CORPUSCULAR HEMOGLOBIN CONCENTRATION [3]: 38.27 G/DL
MEAN CORPUSCULAR VOLUME [3]: 63.17 fL
MONOCYTE [3]: 1%
NEUTROPHIL [3]: 9%
NUCLEATED RED BLOOD CELLS [3]: 0 /100WBC
PLATELET COUNT [3]: 1190.33 x10E3/uL
ALANINE AMINOTRANSFERASE [3]: 47.67 u/L
ALBUMIN [3]: 4.07 G/DL
ALKALINE PHOSPHATASE [3]: 329 u/L
ASPARTATE AMINOTRANSFERASE [3]: 87.67 u/L
BLOOD UREA NITROGEN [3]: 15.67 mg/dL
CARBON DIOXIDE [3]: 31 mmol/L
CHLORIDE [3]: 100 MEQ/L
CHOLESTEROL [3]: 65.67 mg/dL
CREATINE PHOSPHOKINASE [3]: 337 u/L
CREATININE [3]: 0.17 mg/dL
GLUCOSE [3]: 135.33 mg/dL
LACTATE DEHYDROGENASE [3]: 119.67 u/L
LIPASE [3]: 10.33 u/L
PHOSPHORUS [3]: 9.67 mg/dL
POTASSIUM [3]: 6.24 MEQ/L
SODIUM [3]: 145.07 MEQ/L
TOTAL BILIRUBIN [3]: 0.2 mg/dL
TOTAL PROTEIN [3]: 6.2 G/DL
URIC ACID [3]: 0.83 mg/dL
